Laboratory results from paper PMC12040169 (PLOS Biology, 2025).

Assay: in vitro
Details: human, hela cells, % viability

| Compound | viability at 28.5 h, 10 µM [%] |
| --- | --- |
| O=C(NCc1cccs1)c1cnoc1-c1ccc([N+](=O)[O-])cc1 [CBK153845] | 82.9 |
| COc1ccc(-n2ncc(-c3cccnc3)n2)cn1 [CBK112827] | 96.7 |
| Cc1nn(C)cc1-c1cncn1Cc1cccc(OC(C)C)c1 [CBK281484] | 95.3 |
| Nc1nc(CSc2nnc(-c3ccccc3O)n2Cc2ccccc2)cs1 [CBK267394] | 90.4 |
| O=c1[nH]cc(-c2ccc(F)cc2)cc1CNCc1ccc(F)cc1 [CBK284695] | 96.1 |
| Cc1cc(C(=O)NCC[S+](C)[O-])c(-n2cccc2)s1 (stereo not drawn) [CBK283305] | 96.7 |
| Cc1nc2ccccc2c(C)c1C(=O)OCc1nc(N)nc(N(C)C)n1 [CBK295627] | 70.6 |
| COCc1cc(CN2CCN(C)CC2)c(O)c2ncccc12 [CBK263546] | 85.1 |
| COc1ccc(C(=O)N2CCC3(CCN(C(=O)Cc4c[nH]cn4)C3)C2)cc1OC (stereo not drawn) [CBK131768] | 107 |
| Cc1cc(=O)n(C)c(=O)n1CCCN1CCCCC1 [CBK027584] | 115 |
| CCOC(=O)c1cnn(C2CCCN(Cc3c(C)n[nH]c3C)C2)c1 (stereo not drawn) [CBK304059] | 88.6 |
| CC(C)C(=O)N1CC2(CCN(Cc3nc4ccccc4[nH]3)CC2)c2ccccc21 [CBK126719] | 110 |
| FC(F)(F)c1ccnc(OCc2ccc(Cl)c(Cl)c2)c1 [CBK116623] | 89.2 |
| CCCc1nn(CC(=O)NC2CC2)c(=O)c2cc3ccsc3n12 [CBK284146] | 85.3 |
| COc1ccc(CN2CCN(c3ccccc3F)CC2)cc1OCc1ccccc1 [CBK261900] | 115 |
| COc1ccc(-c2nccnc2N2CCN(C)CC2)cc1 [CBK038012] | 113 |
| COc1ccc(C(=O)N(C)C)cc1OC [CBK015550] | 115 |
| Cc1nccn1CCCn1cncc1-c1ccc2c(c1)CC(C)N2C (stereo not drawn) [CBK281818] | 87.8 |
| OCCN(Cc1ccccc1)Cc1ccc(Cl)c(Cl)c1 [CBK261908] | 117 |
| Cc1noc(C)c1S(=O)(=O)Nc1ccc2cc(Br)cnc2n1 [CBK073893] | 93.1 |
| COC(=O)c1ccc(NC(=S)N2CCC(C(N)=O)CC2)cc1 [CBK267232] | 90.2 |
| Cc1ccc2nc(SCC(=O)O)nc(C)c2c1 [CBK265996] | 94.1 |
| CS(=O)(=O)N[C@H]1CO[C@H]2[C@@H]1OC[C@@H]2Nc1nccc(-c2ccco2)n1 [CBK289525] | 96.4 |

| Compound | viability at 28.5 h, 10 µM [%] |
| --- | --- |
| Cc1ccc(O)c(NC(=O)COc2ccc(Cl)cc2)c1 [CBK268670] | 108 |
| O=C(O)c1cccc(NC(=O)c2c(C(=O)O)cccc2[N+](=O)[O-])c1 [CBK261096] | 99.6 |
| CCc1cc(CNC(=O)C(c2ccc(F)cc2)N(C)C)on1 (stereo not drawn) [CBK281648] | 88.4 |
| c1csc(COc2nccnc2-c2ccsc2)c1 [CBK106770] | 100 |
| CCOC(=O)C(NC(=O)N(C1=NCC(C)S1)C1CCCCC1)(OC)C(F)(F)F (stereo not drawn) [CBK021431] | 96.8 |
| Cn1c(CN2CCN(C(=O)NC3CCCCC3)CC2)nc2cc([N+](=O)[O-])ccc21 [CBK268266] | 97.1 |
| CCCn1cnc2cc(NC(=O)Cn3cc(C(=O)NC4CCCCC4)ccc3=O)ccc21 [CBK286098] | 96.6 |
| CC(NC(=O)Cn1ccnc1-c1ccccc1)c1ccccn1 (stereo not drawn) [CBK281885] | 103 |
| CCOc1ccc(CNc2ccc(N3CCOCC3)c(C(=O)O)c2)cc1OC [CBK269192] | 93 |
| COc1ccc(Oc2nccc(-c3ccccc3)c2C#N)cc1 [CBK291158] | 98.7 |
| CCCC(=O)N1CCC(c2nc3ccccc3cc2NC(C)=O)CC1 [CBK285258] | 78.4 |
| Cc1cccc(C2(c3cccc(C)c3)CC2C(=O)NCc2cccnc2)c1 (stereo not drawn) [CBK262382] | 106 |
| O=C(NC(c1ccccc1)c1ccco1)C1CCN(CCN2C(=O)c3ccccc3C2=O)CC1 (stereo not drawn) [CBK148297] | 120 |
| CN1CCN(Cc2nc3c([nH]2)c(=O)n(C)c(=O)n3C)CC1 [CBK269578] | 104 |
| Cc1nn(Cc2cccc(C(=O)O)c2)c(C)c1Br [CBK286950] | 100 |
| CN(C)CC1CCCN(C(=O)c2cc3cc(Cl)ccc3n2C)C1 (stereo not drawn) [CBK282121] | 111 |
| O=C(CSc1nnc(-c2ccncc2)n1-c1ccccc1)N/N=C/c1ccco1 [CBK262828] | 94.4 |
| C#CCNC(=O)CC[C@H]1CNC(=O)[C@@H]2[C@@H](CCN2Cc2ccc(O)cc2)N1C [CBK289017] | 94 |
| O=C(Cn1cnnn1)NCc1cccnc1OCC(F)(F)F [CBK306467] | 96.1 |
| CCOC(=O)C1(Cc2ccccc2-c2ccncc2)CCNCC1 [CBK282297] | 88.8 |
| O=C(C1CCOCC1)N1CCCC[C@H]2CN(Cc3ccccc3)C[C@H]21 [CBK284839] | 86.9 |
| O=C(O)C1CC(C(=O)O)C(C(=O)O)CC1C(=O)O (stereo not drawn) [CBK261332] | 89.4 |
| CN(C)CCNc1cc(-c2ccc3ccccc3c2)nc2ccccc12 [CBK278186B] | 67.9 |

| Compound | viability at 28.5 h, 10 µM [%] |
| --- | --- |
| Cc1c(Cl)c([N+](=O)[O-])nn1CC(=O)N1CCN(C)CC1 [CBK261719] | 89.4 |
| Cc1cc(NC(=O)c2ccc(OC(C)C)cc2)no1 [CBK287575] | 94.4 |
| CCn1cc(S(=O)(=O)Nc2cc(C)on2)cn1 [CBK270302] | 84.3 |
| Cc1cc(CCCC(=O)N2CCCC(c3ccc(Nc4ncccn4)cn3)C2)ccc1F (stereo not drawn) [CBK286003] | 78.6 |
| Cc1n[nH]c(O)c1C(c1ccc(OC(=O)c2ccccc2Cl)cc1)c1c(C)n[nH]c1O [CBK264520] | 101 |
| c1nncn1/N=C1/CCCc2nonc21 [CBK261065] | 91.8 |
| COc1cc(C(=O)NCc2ccccn2)cc(OC)c1OC [CBK058552] | 88.3 |
| Cc1ccc2nsnc2c1NC(=O)COc1ccc([N+](=O)[O-])cc1 [CBK033705] | 95.6 |
| COc1ccc(CCNC(=O)N(CCC#N)C2CCCCC2)cc1 [CBK156375] | 100 |
| CC(C)NC(=O)C1(Cc2ccc(-c3ccccc3)cc2)CCN(C(=O)C2CCC2)CC1 [CBK285750] | 102 |
| CS(=O)(=O)N(Cc1ccccc1)c1ccc(C(=O)N/N=C/c2ccccc2C(F)(F)F)cc1 [CBK262711] | 88 |
| NS(=O)(=O)c1cc(C(=O)OCC(=O)c2ccccc2)c(Cl)cc1Cl [CBK264542] | 90.8 |
| O=S(=O)(NCC1(c2ccccc2)CCCC1)c1cccnc1 [CBK282762] | 102 |
| O=C(NC1CC1)[C@@H]1C=CCN1S(=O)(=O)c1ccc(F)cc1 [CBK284294] | 92.5 |
| NC(=O)[C@@H]1C[C@@H](O)[C@H](O)[C@H]2[C@@H]1N(c1ccccc1)C(=S)N2Cc1ccc(F)cc1 [CBK288928] | 102 |
| O=C(CSc1nc(-c2cccs2)cc(C(F)(F)F)n1)N1CCSCC1 [CBK307371] | 107 |
| CN1C(=O)CC2(C1=O)C(=O)N(C)c1ccc(F)cc12 (stereo not drawn) [CBK075290] | 105 |
| Cc1cc(=O)n(C)c(=O)n1CCCCCN1CCCC1 [CBK027386] | 99.9 |
| CCC(=O)NC(c1ccc(OC)c(OC)c1)c1ccc2cccnc2c1O (stereo not drawn) [CBK293926] | 78 |
| c1cncc(COc2nc3ccccc3nc2N2CCCC2)c1 [CBK115762] | 93.4 |
| Cn1c(NC(=O)CSc2nnc(Cc3cccc4ccccc34)o2)cc(=O)n(C)c1=O [CBK266055] | 115 |
| CCC(CC)c1cc([C@H]2CN3CC[C@H]2C[C@@H]3CO)nc(-c2ccncc2)n1 [CBK289118] | 100 |
| Cc1ccccc1NC(=O)/C(=C\c1cccnc1)NC(=O)c1ccccc1 [CBK261632] | 93.9 |

| Compound | viability at 28.5 h, 10 µM [%] |
| --- | --- |
| CC(C(=O)NCCc1cn(C)c2ccc(Cl)cc12)N1CCOCC1 (stereo not drawn) [CBK282263] | 94.6 |
| CCOC(=O)CN1CCC(Oc2cncc(OCCN3CCOCC3)n2)C1 (stereo not drawn) [CBK084491] | 89.3 |
| O=Cc1ccc(-c2nccnc2NS(=O)(=O)c2ccccc2)cc1 [CBK073845] | 97.3 |
| CC(=O)c1sc(NC(=O)c2ccc(Br)o2)nc1C [CBK057948] | 91.6 |
| COc1ccc([C@@]23CC[C@H](NC(=O)c4[nH]cnc4C)C[C@@H]2N(C)CC3)cc1OC [CBK038097] | 118 |
| Cn1cc(NC(=O)c2ccc(CN3CCCC3=O)cc2)cn1 [CBK306322] | 89.7 |
| O=C1NC2(CCCC2)C(=O)N1Cc1cnn(-c2ccccc2)n1 [CBK305568] | 103 |
| N#Cc1ccccc1NC(=O)NCCC1=CCCCC1 [CBK044365] | 95.1 |
| O=C(CSc1nnc(Cc2cccs2)n1-c1ccccc1)c1c[nH]c2ccccc12 [CBK268290] | 88 |
| Cc1ccc2c(c1)C1(CCN(C/C=C\c3ccccc3)CC1)NC(=O)C2 [CBK040216] | 94.1 |
| O=C(CSCCO)Nc1ccc(Oc2ccccc2)cc1 [CBK269167] | 98.4 |
| CCCCCOc1ccc(Nc2cc(-c3ccco3)ncn2)cc1 [CBK090892] | 92.6 |
| O=c1c2ccccc2nc2n1CCN(Cc1cc(F)ccc1F)CC2 [CBK284818] | 99.1 |
| CC(C)CNc1nccnc1-c1ccc2c(c1)OCO2 [CBK088730] | 98.4 |
| O=C(/C=C/c1ccc(F)cc1)NCCc1ccc(S(=O)(=O)N2CCCC2)cc1 [CBK265227] | 81.8 |
| CC(C)C(CNCc1cncnc1)c1ccnn1C (stereo not drawn) [CBK304190] | 79.9 |
| CC1(C)CC(=O)C2=C(C1)Nc1ccccc1N(C(=S)NCc1ccco1)C2c1cccnc1 (stereo not drawn) [CBK267342] | 89.4 |
| COc1cccc(-c2nnc(NC(=O)c3ccc4c(c3)OCCO4)o2)c1 [CBK287591] | 108 |
| O=C(O)CCn1oc(=O)c2ccccc21 [CBK020340] | 89.8 |
| COc1ccc(F)c(CNCCNC(=O)OC(C)(C)C)c1 [CBK056699] | 93.9 |
| Cc1nc(CN2C(=O)CC(Cc3cnn(C)c3)C2=O)nc2ccccc12 (stereo not drawn) [CBK305415] | 105 |
